Laboratory results from US20220168252A1, “RETINOID DERIVATIVES WITH ANTITUMOR ACTIVITY” (BIOGEM S.C. A R.L., priority 2016, published 2022).
Counter-ions that a name gives are not always drawn. Like-named read-outs stand apart in the source and are kept apart here. Blank lines part the entries; values can stand above or below the molecule they belong to.

Key:
[1] = system: Human Adarotene-resistant NCI-H460 (R9A) NSCLC; experiment: Anti-proliferative activity, H460-R9A, 24 h + 48 h recovery, SRB; format: cell-based; details: 24 h exposure, read-out: IC50 ± SD H460-R9A
Experimental: (§1) Tumor cells were exposed for 24 h to new atypical retinoids (AR) and the anti-proliferative activity assessed upon 48 h recovery in drug-free medium with the SRB assay. RI=Resistance Index (ratio between the IC50 values of resistant and sensitive cells).

MM487-Luc mesothelioma [2] = experiment: Anti-proliferative activity, MM487-Luc, 24 h + 48 h recovery, SRB; format: cell-based; details: Homo sapiens, 24 h exposure, read-out: IC50 ± SD MM487-Luc
Experimental: as §1

U87MG glioblastoma cells = experiment: Anti-proliferative activity, U87MG, 24 h + 48 h recovery, SRB; format: cell-based; details: Homo sapiens, U-87 MG, 24 h exposure, read-out: IC50 ± SD U87MG
Experimental: as §1

[3] = system: Human Adarotene-resistant NCI-H460 (R9A) NSCLC; details: Zuco V. et al, Neoplasia 2005; cited from earlier work
[4] = system: H460-R9A retinoid resistant cells; experiment: H460-R9A lung cancer subcutaneous xenograft in mice; details: Cisplatin 4 mg/kg IV q7dx4w, MIR002 50 mg/kg OS bid, qdx5/wx4w
Experimental: CD-1 nude and NOG mice, females, 4-5 weeks-old, were housed under specific-pathogen-free conditions in individually ventilated cages.
Cells were cultured in appropriated media and expanded in a 37° C. incubator with saturated humidity and an atmosphere of 95% air and 5% CO2, and were sub-cultured every 2-3 days. Before the injection in mice, cells were checked with MycoAlert® Mycoplasma Detection Kit (Lonza) to exclude mycoplasma contamination, counted by trypan blue dye exclusion, evaluated for cell viability (>95%).
H-460-R9A lung cancer cells were suspended at a concentration of 25×10^6/ml. 5×10^6 tumor cells were suspended in 0.2 ml of M199, then inoculated subcutaneously on the right flank of each animal.
MIR002 was dissolved to a concentration of 3.3 mg/mL in 10% DMSO, 5% ethanol, 20% Kolliphor® EL and 65% Na2CO3 10 mM pH 11 and administered by gavage; Cisplatin was dissolved to a concentration of 0.8 mg/mL in sterile saline solution and administered intravenously.
Four days after inoculation, tumor masses of H460-R9A were measured in length and width using a Mitutoyo caliper, mice were sorted basing on tumor volume (TV) and treatments were started. Tumor volume was calculated as follows: TV (mm3)=(Length (mm)×Width (mm)2)/2. Tumor growth was followed by biweekly measurements. Tumor Growth Inhibition (TGI) for each group was calculated as follows: TGI (%)=100−(mean TVtreated/mean TVcontrol×100). Mice were weighed twice a week.

Human NCI-H460 NSCLC = experiment: Anti-proliferative activity, NCI-H460, 72 h, SRB; format: cell-based; details: for cytotoxic activity / IC50 range on NCI-H460 cells: SRB/MTT assay
Experimental: (§2) The anti-proliferative activity of the POLA1/HDAC dual inhibitors MIR002 and GEM144 was assessed on various cell lines from solid and hematological cancers.
(§3) Human tumor cells were treated with POLA1/HDAC dual inhibitors and cell survival assessed upon 72 h with the SRB assay. HDAC=Histone Deacetylase. POLA1=DNA Polymerase Alpha 1. RI=Resistance Index.

[5] = system: parent A2780 ovarian cancer cell line; experiment: Anti-proliferative activity, A2780, 24 h + 48 h recovery, SRB; format: cell-based; details: Homo sapiens, 24 h exposure, read-out: IC50 ± SD A2780
Experimental: as §1

[6] = system: A2780-Dx multidrug-resistant ovarian cancer cell line; experiment: Anti-proliferative activity, A2780-Dx, 24 h + 48 h recovery, SRB; format: cell-based, Human; details: for RI (Resistance Index, ratio between the IC50 values of resistant and sensitive cells): A2780-Dx vs A2780, 24 h exposure; for IC50: Homo sapiens, A2780/DX, 24 h exposure, SRB, read-out: IC50 ± SD A2780-Dx
Experimental: as §1
As described by Zuco V. et al in Neoplasia, 2005 July; 7(7):667-77, H460-R9A are about 70 fold resistant with respect to parental H460 to Adarotene. […] Ovarian cancer A2780 and its clone derivative A2780DX (Doxorubicin resistant) which overexpress P-glycoprotein (PGP), were used to evaluate the possibility of these new molecules to be absorbed at intestinal level. In fact, the overexpression of PGP, as well known, drastically reduces the possibility, after oral administration, of absorption of several chemotherapeutic agents (i.e. Paclitaxel, doxorubicin etc.). Since the IC50 of the tested compounds in A2780 and A2780DX, have similar values we conclude that they are not PGP substrates and they could be administrated to the patients via oral route.

U87MG-Luc (Glioma) = experiment: Orthotopic glioma murine model (U87MG-Luc), IVIS imaging; format: in vivo, mice; details: 100 mg/kg IP, qdx5x4w, intracranial U87MG-Luc
Experimental: Orthotopic glioma murine model. 1×10^6 Brain glioblastoma bioluminescent cells (U-87 MG) were injected intracranically and tumor growth was evaluated through IVIS imaging system.
Tumor growth was followed by biweekly measurements. […] Mice were weighed twice a week. […] Tumor growth was further followed by weekly BLI measurements. TGI was calculated as for the H460 trial.
The activity of compound 2 (RC1375) was evaluated on glioma xenograft murine models. Brain glioblastoma bioluminescent cells (U-87 MG) were injected intracranically and tumor growth was evaluated through IVIS imaging system. After a week of injection, 2 (RC1375) (100 mg/kg) was administered intraperitoneally to mice (qdx5x4w).

[7] = system: ST1926-resistant H460 (H460-R9A) NSCLC; experiment: Anti-proliferative activity, H460-R9A, 72 h, SRB; format: cell-based, human
Experimental: as §2, §3

[8] = system: parent A2780 ovarian carcinoma; experiment: Anti-proliferative activity, A2780, 72 h, SRB; format: cell-based, human; details: read-out: A2780 IC50 ± SD
Experimental: as §2, §3

[9] = system: multidrug-resistant A2780-Dx ovarian carcinoma; experiment: Anti-proliferative activity, A2780-Dx, 72 h, SRB; format: cell-based, human
Experimental: as §2, §3

MM473-Luc mesothelioma = experiment: Anti-proliferative activity, MM473-Luc, 72 h, SRB; format: cell-based, Human
Experimental: as §2
(§4) HDAC=Histone Deacetylase. POLA1=DNA Polymerase Alpha 1. N.e.=not evaluated.

MM487-Luc mesothelioma [10] = experiment: Anti-proliferative activity, MM487-Luc, 72 h, SRB; format: cell-based, Human
Experimental: as §2, §4

B16-Luc (Melanoma) = experiment: Anti-proliferative activity, B16-Luc, 72 h, SRB; format: cell-based, mouse
Experimental: as §2, §4

NB4 (leukemia) = experiment: Cell survival, NB4, 72 h, MTT; format: cell-based, Human; details: read-out: NB4 (leukemia) IC50 ± SD
Experimental: as §2
(§5) Tumor cells were treated with POLA1/HDAC dual inhibitors and cell survival assessed upon 72 h with the MTT assay. HDAC=Histone Deacetylase. POLA1=DNA Polymerase Alpha 1.

THP-1 (leukemia) = experiment: Cell survival, THP-1, 72 h, MTT; format: cell-based, Human
Experimental: as §2, §5

U2932 (lymphoma) = experiment: Cell survival, U2932, 72 h, MTT; format: cell-based, Human
Experimental: as §2, §5

Z138 (lymphoma) = experiment: Cell survival, Z138, 72 h, MTT; format: cell-based, Human
Experimental: as §2, §5

DU145 prostate carcinoma = details: 72 h; SRB
Experimental: (§6) To this end, cells in the logarithmic phase of growth were seeded in 96-wells plastic plates, incubated overnight in culture medium, and treated for 72 h with scalar concentrations (2-fold dilution series) of the compounds.
(§7) Tumor cells were exposed to the inhibitors, and the anti-proliferative activity assessed upon 72 h with the SRB assay. N.e.=not evaluated.

HT29 colon carcinoma = details: 72 h; SRB
Experimental: as §6, §7

SW620 colon carcinoma = details: 72 h; SRB
Experimental: as §6, §7

[11] = Homo sapiens, NCI-H460, chronically exposed 72 h, SRB (Table 2), read-out: IC50 ± SD

- IC50 [1]: 26.9 ± 0.7 µM
- IC50 (MM487-Luc mesothelioma [2]): 9.2 ± 0.3 µM
- IC50 (U87MG glioblastoma cells): 1.63 ± 0.1 µM
- BWL Day + 35 ([4]; Adarotene 15 mg/Kg OS q7dx5x4w): 12%
SMILES: O=C(O)/C=C/c1ccc(-c2ccc(O)c(C34CC5CC(CC(C5)C3)C4)c2)cc1 [Adarotene, reference compound]
- resistance of H460-R9A with respect to parental H460 [3]: about 70 fold

SMILES: CC(C)(Oc1ccc(-c2ccc(/C=C/C(=O)O)cc2)cc1C12CC3CC(CC(C3)C1)C2)C(=O)NO [BIO146]
- cytotoxic activity / IC50 range on NCI-H460 cells (Human NCI-H460 NSCLC; 72 h): micro molar range

SMILES: N.N.[Cl][Pt][Cl] [Cisplatin, reference compound]
- TGI Day + 35 ([4]; combination same doses): 34%

- IC50 (Human NCI-H460 NSCLC; [11]): < 5 µM
- IC50 [1]: 8.3 ± 0.2 µM
- IC50 (MM487-Luc mesothelioma [2]): 1.7 ± 0.08 µM
- IC50 [5]: 4.2 ± 0.3 µM
- RI (Resistance Index, ratio between the IC50 values of resistant and sensitive cells) [6]: 0.9
- IC50 [6]: 3.9 ± 0.1 µM
SMILES: O=C(O)/C=C/c1ccc(-c2ccc(OCCCC(=O)NO)c(C34CC5CC(CC(C5)C3)C4)c2)cc1 [Compound 1, 3-[3′-Adamantan-1-yl-4′-(3-hydroxycarbamoyl-propoxy)-biphenyl-4-yl]-acrylic acid]

SMILES: O=C(O)/C=C/c1ccc(-c2ccc(OCCCCC(=O)NO)c(C34CC5CC(CC(C5)C3)C4)c2)cc1 [Compound 2, 3-[3′-Adamantan-1-yl-4′-(4-hydroxycarbamoyl-butoxy)-biphenyl-4-yl]-acrylic acid]
- IC50 (Human NCI-H460 NSCLC; [11]): < 5 µM
- IC50 [1]: 5.9 ± 0.1 µM
- IC50 (MM487-Luc mesothelioma [2]): 1.9 ± 0.2 µM
- IC50 (U87MG glioblastoma cells): 5.5 ± 0.9 µM
- IC50 [5]: 3.7 ± 0.3 µM
- RI (Resistance Index, ratio between the IC50 values of resistant and sensitive cells) [6]: 1.3
- IC50 [6]: 4.5 ± 0.07 µM
- BLI Average (Day) (U87MG-Luc (Glioma); day +35): 1.31 × 10^5 ± 1.26 × 10^5 p/s/cm^2/sr
- TGI (U87MG-Luc (Glioma)): 72%
- melting point: 224 °C (dec.)

- IC50 (Human NCI-H460 NSCLC; [11]): ≤ 5 µM
SMILES: O=C(O)C=Cc1ccc(-c2ccc(OCCCCCCCC(=O)NO)c(C34CC5CC(CC(C5)C3)C4)c2)cc1 [Compound 3, 3-[3′-Adamantan-1-yl-4′-(7-hydroxycarbamoyl-heptyloxy)-biphenyl-4-yl]-acrylic acid]

- IC50 (Human NCI-H460 NSCLC; [11]): ≤ 10 µM
SMILES: NCCSSCCNC(=O)CCCOc1ccc(-c2ccc(/C=C/C(=O)O)cc2)cc1C12CC3CC(CC(C3)C1)C2 [Compound 4, 2-(2-{4-[3-Adamantan-1-yl-4′-(2-carboxy-vinyl)-biphenyl-4-yloxy]-butyrylamino}-ethyldisulfanyl)-ethyl-ammonium; trifluoroacetate]

- IC50 (Human NCI-H460 NSCLC; [11]): < 5 µM
SMILES: O=C(O)/C=C/c1ccc(-c2ccc(OCCCC(=O)NCCSSCCNC(=O)C(Cc3ccc(O)c(Br)c3)=NO)c(C34CC5CC(CC(C5)C3)C4)c2)cc1 [Compound 5, 3-{3′-Adamantan-1-yl-4′-[3-(2-{2-[3-(3-bromo-4-hydroxy-phenyl)-2-hydroxyimino-propionylamino]-ethyldisulfanyl}-ethylcarbamoyl)-propoxy]-biphenyl-4-yl}-acrylic acid]

- IC50 (Human NCI-H460 NSCLC; [11]): < 0.1 µM
SMILES: O=C(O)/C=C/c1ccc(-c2ccc(OC(=O)CCC(=O)NCCSSCCNC(=O)/C(Cc3ccc(O)c(Br)c3)=N/O)c(C34CC5CC(CC(C5)C3)C4)c2)cc1 [Compound 6, 3-{3′-Adamantan-1-yl-4′-[3-(2-{2-[3-(3-bromo-4-hydroxy-phenyl)-2-hydroxyimino-propionylamino]-ethyldisulfanyl}-ethylcarbamoyl)-propionyloxy]-biphenyl-4-yl}-acrylic acid]

- IC50 [1]: 10.6 ± 0.3 µM
SMILES: O=C(O)/C=C/c1ccc(-c2ccc(OCCC(=O)NO)c(C34CC5CC(CC(C5)C3)C4)c2)cc1 [Compound 12, 3-[3′-Adamantan-1-yl-4′-(2-hydroxycarbamoyl-ethoxy)-biphenyl-4-yl]-acrylic acid]

- IC50 [1]: 16.9 ± 0.5 µM
SMILES: O=C(COc1ccc(-c2ccc3cc(C(=O)O)ccc3c2)cc1C12CC3CC(CC(C3)C1)C2)NOC1CCCCO1 (stereo not shown) [Compound 13, 6-{3-Adamantan-1-yl-4-[(tetrahydro-pyran-2-yloxycarbamoyl)-methoxy]-phenyl}-naphthalene-2-carboxylic acid]

- IC50 [1]: 2.3 ± 0.4 µM
SMILES: O=C(COc1ccc(-c2ccc3cc(C(=O)O)ccc3c2)cc1C12CC3CC(CC(C3)C1)C2)NO [Compound 14, 6-(3-Adamantan-1-yl-4-hydroxycarbamoylmethoxy-phenyl)-naphthalene-2-carboxylic acid]

- IC50 [1]: 17.3 ± 1.3 µM
SMILES: NNC(=O)COc1ccc(-c2ccc(C=CC(=O)O)cc2)cc1C12CC3CC(CC(C3)C1)C2 [Compound 17, 3-(3′-adamantan-1-yl-4′-hydrazinocarbonylmethoxy-biphenyl-4-yl)-acrylic acid trifluoroacetate]

SMILES: CC(Oc1ccc(-c2ccc(/C=C/C(=O)O)cc2)cc1C12CC3CC(CC(C3)C1)C2)C(=O)NO (stereo not shown) [GEM144]
- IC50 (Human NCI-H460 NSCLC; 72 h, SRB (Table 8), read-out: NCI-H460 IC50 ± SD): 0.26 ± 0.009 µM
- cytotoxic activity / IC50 range on NCI-H460 cells (Human NCI-H460 NSCLC; 72 h): nano molar range
- RI (Resistance Index) ([7]; H460-R9A vs NCI-H460): 8.5
- IC50 ([7]; SRB, read-out: H460-R9A IC50 ± SD): 2.2 ± 0.09 µM
- IC50 [8]: 0.95 ± 0.04 µM
- IC50 ([9]; 72 h, SRB, read-out: A2780-Dx IC50 ± SD): 0.66 ± 0.008 µM
- RI (Resistance Index) ([9]; A2780-Dx vs A2780, 72 h): 0.7
- substrate for the P-gp drug efflux pump ([9]; indicated by low resistance index, A2780-Dx vs A2780): very poor substrate
- cytotoxicity, MM473 mesothelioma (MM473-Luc mesothelioma): very effective
- IC50 (MM473-Luc mesothelioma; read-out: MM473-Luc IC50 ± SD): 1.4 ± 0.2 µM
- cytotoxicity, MM487 mesothelioma (MM487-Luc mesothelioma [10]): very effective
- IC50 (MM487-Luc mesothelioma [10]; read-out: MM487-Luc IC50 ± SD): 0.73 ± 0.2 µM
- cytotoxicity, B16 melanoma (B16-Luc (Melanoma)): very effective
- IC50 (B16-Luc (Melanoma); read-out: B16-Luc (Melanoma) IC50 ± SD): 0.37 ± 0.03 µM
- IC50 (NB4 (leukemia)): 0.23 ± 0.03 µM
- cytotoxicity, THP-1 leukemia (THP-1 (leukemia)): very effective
- IC50 (THP-1 (leukemia); read-out: THP-1 (leukemia) IC50 ± SD): 0.52 ± 0.02 µM
- cytotoxicity, U2932 lymphoma (U2932 (lymphoma)): very effective
- IC50 (U2932 (lymphoma); read-out: U2932 (lymphoma) IC50 ± SD): 0.77 ± 0.1 µM
- cytotoxicity, Z138 lymphoma (Z138 (lymphoma)): very effective
- IC50 (Z138 (lymphoma); read-out: Z138 (lymphoma) IC50 ± SD): 0.16 ± 0.03 µM
- cytotoxicity, DU145 prostate carcinoma (DU145 prostate carcinoma): very effective
- cytotoxicity, HT29 colon carcinoma (HT29 colon carcinoma): very effective
- cytotoxicity, SW620 colon carcinoma (SW620 colon carcinoma): very effective
